The text below walks through data of patent US20100113533A1, “Polymorph II of 4-[4-(Amino)-3- Fluorophenoxy]-N-Methylpyridine-2-Carboxamide” (BAYER SCHERING PHARMA AKTIENGESELLSCHAFT, priority 2006, published 2010).

This data set in a line: Solubility in water and in organic solvents. The class given is physicochemical.

`CNC(=O)c1cc(Oc2ccc(NC(=O)Nc3ccc(Cl)c(C(F)(F)F)c3)c(F)c2)ccn1` [polymorph II, 4-[4-({[4-chloro-3-(trifluoromethyl)phenyl]carbamoyl}amino)-3-fluorophenoxy]-N-methylpyridine-2-carboxamide]: the “solubility in organic solvents” value (organic solvents) was “high solubility”. Further, where the note is “water”, the solubility in water result was “high solubility”.
